According to patent publication US20140274713A1, “IONIC LIQUIDS AND USES THEREOF” (OMS Investments, Inc., priority 2013, published 2014):

Experiment: Dissolution in Dowanol DPM under high shear
Format: physicochemical
Conditions: Dowanol DPM (dipropylene glycol methyl ether)

For COC(=O)c1ccccc1S(=O)(=O)NC(=O)Nc1nc(C)nc(OC)n1 [MSM, methsulfuron methyl], the “Dissolution in Dowanol DPM” value was “did not dissolve”.
